pIC50: −log10 of the molar value. Where a name gives a salt, the structure may show the parent alone. Read-outs that look alike come from different tables or passages of the source. One block for each compound: values may come before it.
Test system: amyloid β production in transfected H4 (human neuroglioma) cells stably expressing APP constructs
Assay: In vitro cell-based assay of inhibitors of amyloid β production (ELISA)
Outline: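 Aβ secreted into the medium was read by sandwich ELISA (monoclonal capture for the Aβ C-terminus, polyclonal detection for the N-terminus) and calibrated on a standard curve. Before this, APP-expressing H4 cells were exposed to compound for ~16 h at an initial 10-100 μM, with actives then retested in dose-response.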

[1] = transfected H4 cells stably expressing APP, approximately 16 hours incubation, amyloid β in medium by ELISA, Table B, read-out: ACTIVITY (IC50, inhibition of amyloid β production)
[2] = transfected H4 cells stably expressing APP, approximately 16 hours incubation, amyloid β in medium by ELISA, read-out: ACTIVITY (IC50, inhibition of amyloid β production)
[3] = Homo sapiens, 16 h, transfected H4 cells stably expressing APP, approximately 16 hours incubation, amyloid β in medium by ELISA, read-out: ACTIVITY (IC50, inhibition of amyloid β production)
[4] = Homo sapiens, 16 h, transfected H4 cells stably expressing APP constructs, approximately 16 hours incubation, amyloid β in medium by ELISA, read-out: ACTIVITY (IC50, inhibition of amyloid β production)
[5] = Homo sapiens, 16 h, transfected H4 cells expressing APP, approximately 16 hours incubation, amyloid β in medium by ELISA, read-out: ACTIVITY (IC50, inhibition of amyloid β production)
[6] = transfected H4 cells stably expressing APP, approx. 16 h incubation, amyloid β in medium by ELISA, read-out: ACTIVITY (IC50, inhibition of amyloid β production)
[7] = transfected H4 cells stably expressing APP constructs, approximately 16 hours incubation, amyloid β in medium by ELISA, read-out: ACTIVITY (IC50, inhibition of amyloid β production)

Compound: N-{4-[2-(1-{[(4-chlorophenyl)sulfonyl]-2,5-difluoroanilino}ethyl)phenoxy]butyl}-N-methyl-1-adamantanecarboxamide [Example 846]
- pIC50 [2]: 6.30 to 7.00

Compound: N-{3-[2-(1-{[(4-chlorophenyl)sulfonyl]-2,5-difluoroanilino}ethyl)phenoxy]propyl}-N-methyl-2-naphthamide [Example 858]
- pIC50 [2]: 6.30 to 7.00

Compound: S-ethyl 2-[2-(1-{[(4-chlorophenyl)sulfonyl]-2,5-difluoroanilino}ethyl)phenoxy]ethyl(methyl)thiocarbamate [Example 856]
- pIC50 [2]: 6.30 to 7.00

Compound: O=C1CCN(CCCOc2ccccc2CN(c2ccccc2)S(=O)(=O)c2ccc(Cl)cc2)CC1 [Example 307, 4-Chloro-N-{2-[3-(4-oxo-1-piperidinyl)propoxy]benzyl}-N-phenylbenzenesulfonamide Hydrochloride]
- pIC50 [1]: 7.00 to 7.30

Compound: 3-chloro-N-{3-[2-(1-{[(4-chlorophenyl)sulfonyl]-2,5-difluoroanilino}ethyl)phenoxy]propyl}-N-methylbenzamide [Example 688]
- pIC50 [6]: 6.30 to 7.00

Compound: CC(c1ccccc1OCCCn1ccnc1)N(c1cc(F)ccc1F)S(=O)(=O)c1ccc(Cl)cc1 (centres unmarked) [Example 1046, 4-chloro-N-(2,5-difluorophenyl)-N-(1-{2-[3-(1H-imidazol-1-yl)propoxy]phenyl}ethyl)benzenesulfonamide hydrochloride]
- pIC50 [3]: < 6.30

Compound: CC(C)S(=O)(=O)CCC[C@@H](C)N(c1cc(Cl)ccc1Cl)S(=O)(=O)c1ccc(Cl)cc1 [Example 1161]
- pIC50 [7]: ≥ 7.60

Compound: CC(C)Oc1c(NCCC[C@@H](C)N(c2cc(Cl)ccc2F)S(=O)(=O)c2ccc(Cl)cc2)c(=O)c1=O [Example 1122, 4-chloro-N-(5-chloro-2-fluorophenyl)-N-[4-(2-isopropoxy-3,4-dioxo-1-cyclobutenyl)amine-1(R)-methylbutyl]benzenesulfonamide]
- pIC50 [7]: 7.00 to 7.30

Compound: CCS(=O)(=O)CCC[C@@H](C)N(c1cc(Cl)ccc1Cl)S(=O)(=O)c1ccc(Cl)cc1 [Example 1164, 4-chloro-N-[2,5-dichlorophenyl]-N-[1(R)-methyl-(4-ethylsulfonyl]butyl]benzenesulfonamide]
- pIC50 [7]: ≥ 7.60

Compound: O=S(=O)(CCOc1ccccc1CN(c1cc(F)ccc1F)S(=O)(=O)c1ccc(Cl)cc1)C1CCCCC1 [Example 754, 4-chloro-N-{2-[2-(cyclohexylfulfonyl)ethoxy]benzyl}-N-(2,5-difluorophenyl)benzenesulfonamide]
- pIC50 [6]: 6.30 to 7.00

Compound: 2-[2-((1R)-1-{[(4-chlorophenyl)sulfonyl]-2,5-difluoroanilino}ethyl)phenyl]ethyl 1,2,3,4-tetrahydro-1-naphthalenylcarbamate [Example 644]
- pIC50 [6]: 6.30 to 7.00

Compound: N-{3-[2-(1-{[(4-chlorophenyl)sulfonyl]-2,5-difluoroanilino}ethyl)phenoxy]propyl}-3,5-dimethoxy-N-methylbenzamide [Example 802]
- pIC50 [6]: 6.30 to 7.00

Compound: O=S(=O)(c1ccc(Cl)cc1)N(Cc1ncccc1OCCCN1CCCCC1)c1cc(F)ccc1F [Example 233, 4-Chloro-N-(2,5-difluorophenyl)-N-({3-[3-(1-piperidinyl)propoxy]-2-pyridinyl}methyl)benzenesulfonamide Hydrochloride]
- pIC50 (read-out: ACTIVITY (inhibitory concentration IC50, inhibition of amyloid β production)): 7.30 to 7.60

Compound: C[C@H](CCCN1CCCC(S(C)(=O)=O)C1)N(c1cc(Cl)ccc1Cl)S(=O)(=O)c1ccc(Cl)cc1 (some centres unmarked) [Example 1136]
- pIC50 [7]: 6.30 to 7.00

Compound: 3-[2-((1R)-1-{[(4-chlorophenyl)sulfonyl]-2,5-difluoroanilino}ethyl)phenyl]-N-(2,5-difluorobenzyl)propanamide [Example 383]
- pIC50 [1]: 7.00 to 7.30

Compound: N-{3-[2-(1-{[(4-chlorophenyl)sulfonyl]-2,5-difluoroanilino}ethyl)phenoxy]propyl}-N-methyl-4-propylbenzamide [Example 656]
- pIC50 [6]: 6.30 to 7.00

Compound: CC(C)[S+]([O-])CCC[C@@H](C)N(c1cc(Cl)ccc1Cl)S(=O)(=O)c1ccc(Cl)cc1 (some centres unmarked) [Example 1169]
- pIC50 [7]: ≥ 7.60

Second part, the compound after the results:

- pIC50 [1]: 7.00 to 7.30
Compound: CC(c1ccccc1OCCCNC(=O)c1cccnc1)N(c1cc(F)ccc1F)S(=O)(=O)c1ccc(Cl)cc1 (centres unmarked) [Example 359, N-{3-[2-(1-{[(4-chlorophenyl)sulfonyl]-2,5-difluoroanilino}ethyl)phenoxy]propyl}nicotinamide]

- pIC50 [2]: < 6.30
Compound: 3,4-dichloro-N-{3-[2-({[(4-chlorophenyl)sulfonyl]-2,5-difluoroanilino}methyl)phenoxy]propyl}-N-methylbenzamide [Example 932]

- pIC50 [2]: < 6.30
Compound: (E)-N-(2,5-dichlorophenyl)-2-phenyl-N-{2-[3-(1-piperidinyl)propoxy]benzyl}ethanesulfonamide hydrochloride [Example 994]

- pIC50 [3]: < 6.30
Compound: O=S(=O)(c1ccc(Cl)cc1)N(Cc1ccccc1)Cc1ccccc1OCCCN1CCCCC1 [Example 886, N-benzyl-4-chloro-N-{2-[3-(1-piperidinyl)propoxy]benzyl}benzenesulfonamide hydrochloride]

- pIC50 [4]: ≥ 7.60
Compound: C[C@H](CCCS(=O)(=O)N(C)C)N(c1cc(Cl)ccc1F)S(=O)(=O)c1ccc(Cl)cc1 [Example 1202, 4-chloro-N-(5-chloro-2-fluorophenyl)-N-[4-[(dimethylamino)sulfonyl]-1(R)-methylbutyl]benzenesulfonamide]

- pIC50 [1]: 7.00 to 7.30
Compound: CC(c1ccccc1OCCCN(C)C(=O)c1cccnc1)N(c1cc(F)ccc1F)S(=O)(=O)c1ccc(Cl)cc1 (centres unmarked) [Example 360, N-{3-[2-(1-{[(4-chlorophenyl)sulfonyl]-2,5-difluoroanilino}ethyl)phenoxy]propyl}-N-methylnicotinamide]

- pIC50 [5]: < 6.30
Compound: C[C@H](C(=O)NC1CCCc2ccccc21)N(c1cc(Cl)ccc1F)S(=O)(=O)c1ccc(Cl)cc1 (some centres unmarked) [Example 1309]

- pIC50 [3]: 6.30 to 7.00
Compound: O=S(=O)(c1ccc(Cl)cc1)N(Cc1ccccc1OCCCN1CCCCC1)CC1CCCC1 [Example 848, 4-chloro-N-(cyclopentylmethyl)-N-{2-[3-(1-piperidinyl)propoxy]benzyl}benzenesulfonamide hydrochloride]

- pIC50 [3]: < 6.30
Compound: C=CCOc1ccccc1CN(c1ccccc1)S(=O)(=O)c1ccc(Cl)cc1 [Example 1001, N-[2-(allyloxy)benzyl]-4-chloro-N-phenylbenzenesulfonamide]

- pIC50 [3]: < 6.30
Compound: O=S(=O)(c1ccc(Cl)cc1)N(Cc1ccccc1OCCCN1CCCCC1)[C@H]1CC2CCC1C2 (stereo partly drawn) [Example 954, N-[(2S)-bicyclo[2.2.1]hept-2-yl]-4-chloro-N-{2-[3-(1-piperidinyl)propoxy]benzyl}benzenesulfonamide hydrochloride]

- pIC50 (Homo sapiens, 16 h, transfected H4 cells stably expressing APP, approx. 16 h incubation, amyloid β in medium by ELISA, read-out: ACTIVITY (IC50, inhibition of amyloid β production)): 6.30 to 7.00
Compound: CC(c1ccccc1OCCN(C)C(=O)NC(C)(C)C)N(c1cc(F)ccc1F)S(=O)(=O)c1ccc(Cl)cc1 (centres unmarked) [Example 724, N-[1-(2-{2-[[(tert-butylamino)carbonyl](methyl)amino]ethoxy}phenyl)ethyl]-4-chloro-N-(2,5-difluorophenyl)benzenesulfonamide]

- pIC50 [2]: 6.30 to 7.00
Compound: CCCCC(CC)C(=O)N(C)CCCOc1ccccc1CN(c1cc(F)ccc1F)S(=O)(=O)c1ccc(Cl)cc1 (centres unmarked) [Example 837, N-{3-[2-({[(4-chlorophenyl)sulfonyl]-2,5-difluoroanilino}methyl)phenoxy]propyl}-2-ethyl N-methylhexanamide]

- pIC50 (Homo sapiens, 16 h, transfected H4 cells stably expressing APP, approximately 16 hours incubation, amyloid β in medium by ELISA, Table B, read-out: ACTIVITY (IC50, inhibition of amyloid β production)): 7.00 to 7.30
Compound: C[C@H](c1ccccc1CCC(=O)NCc1ccc2c(c1)OCO2)N(c1cc(F)ccc1F)S(=O)(=O)c1ccc(Cl)cc1 [Example 388, N-(1,3-benzodioxol-5-ylmethyl)-3-[2-((1R)-1-{[(4-chlorophenyl)sulfonyl]-2,5-difluoroanilino}ethyl)phenyl]propanamide]

- pIC50 [3]: < 6.30
Compound: C[C@H](c1ccccc1OCCCBr)N(c1cc(F)ccc1F)S(=O)(=O)c1ccc(Cl)cc1 [Example 1045, N-{(1R)-1-[2-(3-bromopropoxy)phenyl]ethyl}-4-chloro-N-(2,5-difluorophenyl)benzenesulfonamide]

- pIC50 (Table B, transfected H4 cells stably expressing APP, approximately 16 hours incubation, amyloid β in medium by ELISA, read-out: ACTIVITY (inhibitory concentration IC50, inhibition of amyloid β production)): ≥ 7.60
Compound: c1cn(CCCNCC2CC2)cn1 [Example 58, N-cyclopropylmethyl-3-(1H)-imidazolylpropylamine]

- pIC50 [2]: < 6.30
Compound: 4-chloro-N-{3-[2-({[(4-chlorophenyl)sulfonyl]-2,5-difluoroanilino}methyl)phenoxy]propyl}-N-methylbenzamide [Example 970]

- pIC50 [5]: < 6.30
Compound: C[C@H](C(=O)Nc1cc(Cl)ccc1O)N(c1cc(Cl)ccc1F)S(=O)(=O)c1ccc(Cl)cc1 [Example 1336]

- pIC50 [4]: ≥ 7.60
Compound: C[C@H](CCC[N+](=O)[O-])N(c1cc(Cl)ccc1F)S(=O)(=O)c1ccc(Cl)cc1 [Example 1107, 4-chloro-N-(5-chloro-2-fluorophenyl)-N-[4-nitro-1(R)-methylbutyl]benzenesulfonamide]
